# In PubChem BioAssay (NCI):
#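 Tested at 5 concentrations; 48 h exposure; 96-well plates; endpoints linearly interpolated, else capped at highest concentration. At the GI50, growth is halved. TGI denotes the concentration required for complete inhibition of growth.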
# Columns and labels:
# Assay in all cases: DTP human tumour cell line panel, 48 h
# [1] = tested on: TK-10 renal
# [2] = tested on: BT-549 breast
# [3] = tested on: NCI-H226 lung
# [4] = tested on: CCRF-CEM leukemia
# [5] = tested on: SF-295 CNS
# [6] = tested on: A549 NSCLC
# [7] = tested on: COLO 205 colon
# [8] = tested on: NCI-H522 lung
# [9] = tested on: LOX IMVI melanoma
# [10] = tested on: SF-268 CNS
# [11] = tested on: ACHN renal
# [12] = tested on: U251 CNS
# [13] = tested on: NCI/ADR-RES ovarian
# [14] = tested on: SR leukemia
# [15] = tested on: SW-620 colon
# [16] = tested on: MOLT-4 leukemia
# [17] = tested on: MALME-3M melanoma
# [18] = tested on: HCT-15 colon
# [19] = tested on: SNB-19 CNS
# [20] = tested on: HT29 colon
# [21] = tested on: SK-MEL-28 melanoma
# [22] = tested on: HL-60(TB) leukemia
# [23] = tested on: IGROV1 ovarian
# [24] = tested on: MCF7 breast
# [25] = tested on: NCI-H460 lung
# [26] = tested on: MDA-MB-231 breast
# [27] = tested on: PC-3 prostate
# [28] = tested on: UACC-257 melanoma
# [29] = tested on: OVCAR-3 ovarian
# [30] = tested on: SK-OV-3 ovarian
# [31] = tested on: NCI-H23 lung
# [32] = tested on: SK-MEL-5 melanoma
# [33] = tested on: HS 578T breast
# [34] = tested on: RPMI-8226 leukemia
# [35] = tested on: K-562 leukemia
# [36] = tested on: UO-31 renal
# [37] = tested on: KM12 colon
# [38] = tested on: SK-MEL-2 melanoma
# [39] = tested on: HOP-92 NSCLC
# [40] = tested on: HOP-62 NSCLC
# [41] = tested on: OVCAR-8 ovarian
# [42] = tested on: 786-0 renal
# [43] = tested on: UACC-62 melanoma
# [44] = tested on: RXF 393 renal
# [45] = tested on: DU-145 prostate
# [46] = tested on: OVCAR-4 ovarian
# [47] = tested on: A498 renal
# [48] = tested on: SF-539 CNS
# [49] = tested on: EKVX NSCLC
# [50] = tested on: HCC-2998 colon
# [51] = tested on: SN12C renal
# [52] = tested on: M14 melanoma
# [53] = tested on: T-47D breast
# [54] = tested on: MDA-MB-435
# [55] = tested on: HCT-116 colon
# [56] = tested on: OVCAR-5 ovarian
# [57] = tested on: SNB-75 CNS
# [58] = tested on: CAKI-1 renal
compound,measurement,setting,value
N#CC1=C(N)Oc2c(sc3c(F)cccc23)C1c1ccc(Cl)cc1 (centres undefined),GI50,[1],8380 nM
same,TGI,[1],24300 nM
same,GI50,[2],3600 nM
same,TGI,[2],22500 nM
same,GI50,[3],12700 nM
same,TGI,[3],34800 nM
same,GI50,[4],2990 nM
same,TGI,[4],12100 nM
same,GI50,[5],2740 nM
same,TGI,[5],9500 nM
same,GI50,[6],4240 nM
same,TGI,[6],17500 nM
same,GI50,[7],2310 nM
same,TGI,[7],6150 nM
same,GI50,[8],1930 nM
same,TGI,[8],11700 nM
same,GI50,[9],3060 nM
same,TGI,[9],11800 nM
same,GI50,[10],4320 nM
same,TGI,[10],31200 nM
same,GI50,[11],4620 nM
same,TGI,[11],19300 nM
same,GI50,[12],3130 nM
same,TGI,[12],11600 nM
same,GI50,[13],2090 nM
same,TGI,[13],6680 nM
same,GI50,[14],1600 nM
same,TGI,[14],13400 nM
same,GI50,[15],3470 nM
same,TGI,[15],16300 nM
same,GI50,[16],2930 nM
same,TGI,[16],10500 nM
same,GI50,[17],6850 nM
same,TGI,[17],26300 nM
same,GI50,[18],2750 nM
same,TGI,[18],13100 nM
same,GI50,[19],3320 nM
same,TGI,[19],16300 nM
same,GI50,[20],3170 nM
same,TGI,[20],11500 nM
same,GI50,[21],5860 nM
same,TGI,[21],28200 nM
same,GI50,[22],2690 nM
same,TGI,[22],8300 nM
same,GI50,[23],3430 nM
same,TGI,[23],17100 nM
same,GI50,[24],1850 nM
same,TGI,[24],12000 nM
same,GI50,[25],3380 nM
same,TGI,[25],11800 nM
same,GI50,[26],3460 nM
same,TGI,[26],16200 nM
same,GI50,[27],2720 nM
same,TGI,[27],12900 nM
same,GI50,[28],11700 nM
same,TGI,[28],> 100000 nM
same,GI50,[29],2600 nM
same,TGI,[29],7440 nM
same,GI50,[30],5160 nM
same,TGI,[30],20000 nM
same,GI50,[31],3370 nM
same,TGI,[31],16200 nM
same,GI50,[32],3680 nM
same,TGI,[32],15100 nM
same,GI50,[33],2630 nM
same,TGI,[33],15500 nM
same,GI50,[34],2910 nM
same,TGI,[34],12800 nM
same,GI50,[35],1280 nM
same,TGI,[35],16300 nM
same,GI50,[36],2490 nM
same,TGI,[36],11500 nM
same,GI50,[37],2750 nM
same,TGI,[37],18900 nM
same,GI50,[38],3490 nM
same,TGI,[38],15500 nM
same,GI50,[39],3710 nM
same,TGI,[39],19200 nM
same,GI50,[40],2990 nM
same,TGI,[40],15700 nM
same,GI50,[41],4400 nM
same,TGI,[41],18700 nM
same,GI50,[42],3150 nM
same,TGI,[42],11100 nM
same,GI50,[43],3260 nM
same,TGI,[43],17500 nM
same,GI50,[44],1920 nM
same,TGI,[44],6000 nM
same,GI50,[45],3490 nM
same,TGI,[45],12900 nM
same,GI50,[46],4210 nM
same,TGI,[46],19600 nM
same,GI50,[47],2570 nM
same,TGI,[47],11200 nM
same,GI50,[48],2050 nM
same,TGI,[48],5590 nM
same,GI50,[49],4000 nM
same,TGI,[49],21700 nM
same,GI50,[50],7250 nM
same,TGI,[50],22600 nM
same,GI50,[51],4330 nM
same,TGI,[51],16200 nM
same,GI50,[52],2190 nM
same,TGI,[52],6570 nM
same,GI50,[53],3430 nM
same,TGI,[53],25300 nM
same,GI50,[54],616 nM
same,TGI,[54],2700 nM
same,GI50,[55],3700 nM
same,TGI,[55],13900 nM
same,GI50,[56],10200 nM
same,TGI,[56],34000 nM
same,GI50,[57],2270 nM
same,TGI,[57],10000 nM
COc1ccc(/C(C#N)=C/c2nc3c(N4CCOCC4)nc(Cl)nc3n2C)cc1OC,GI50,[1],924 nM
same,TGI,[1],2330 nM
same,GI50,[2],< 10 nM
same,TGI,[2],244 nM
same,GI50,[4],< 10 nM
same,TGI,[4],146 nM
same,GI50,[5],< 10 nM
same,TGI,[5],2170 nM
same,GI50,[6],< 10 nM
same,TGI,[6],1920 nM
same,GI50,[7],17.2 nM
same,TGI,[7],42.4 nM
same,GI50,[8],< 10 nM
same,TGI,[8],1280 nM
same,GI50,[9],< 10 nM
same,TGI,[9],1150 nM
same,GI50,[10],17.3 nM
same,TGI,[10],2230 nM
same,GI50,[11],< 10 nM
same,TGI,[11],1250 nM
same,GI50,[12],< 10 nM
same,TGI,[12],1510 nM
same,GI50,[13],< 10 nM
same,TGI,[13],< 10 nM
same,GI50,[14],< 10 nM
same,TGI,[14],3680 nM
same,GI50,[15],< 10 nM
same,TGI,[15],1630 nM
same,GI50,[16],25.1 nM
same,TGI,[16],2890 nM
same,GI50,[17],< 15.2 nM
same,TGI,[17],2010 nM
same,GI50,[18],< 10 nM
same,TGI,[18],1620 nM
same,GI50,[19],< 10 nM
same,TGI,[19],2910 nM
same,GI50,[20],< 10 nM
same,TGI,[20],1400 nM
same,GI50,[21],1100 nM
same,TGI,[21],2430 nM
same,GI50,[22],< 10 nM
same,TGI,[22],< 11.2 nM
same,GI50,[23],< 10 nM
same,TGI,[23],1270 nM
same,GI50,[24],< 13.7 nM
same,TGI,[24],1750 nM
same,GI50,[25],< 10 nM
same,TGI,[25],1990 nM
same,GI50,[26],< 13.3 nM
same,TGI,[26],2460 nM
same,GI50,[27],< 10 nM
same,TGI,[27],1520 nM
same,GI50,[28],1290 nM
same,TGI,[28],2870 nM
same,GI50,[29],< 10 nM
same,TGI,[29],< 10 nM
same,GI50,[30],< 10 nM
same,TGI,[30],5520 nM
same,GI50,[31],< 10 nM
same,TGI,[31],2740 nM
same,GI50,[32],< 10.8 nM
same,TGI,[32],34.7 nM
same,GI50,[33],< 10 nM
same,TGI,[33],2680 nM
same,GI50,[34],< 10 nM
same,TGI,[34],315 nM
same,GI50,[35],< 10 nM
same,TGI,[35],11400 nM
same,GI50,[36],< 10 nM
same,TGI,[36],1650 nM
same,GI50,[37],< 10 nM
same,TGI,[37],1260 nM
same,GI50,[38],< 22.8 nM
same,TGI,[38],1270 nM
same,GI50,[39],246 nM
same,TGI,[39],2940 nM
same,GI50,[40],< 10 nM
same,TGI,[40],2530 nM
same,GI50,[41],< 10 nM
same,TGI,[41],3970 nM
same,GI50,[42],< 10 nM
same,TGI,[42],1610 nM
same,GI50,[43],< 10 nM
same,TGI,[43],1680 nM
same,GI50,[45],< 10 nM
same,TGI,[45],1300 nM
same,GI50,[46],< 10.5 nM
same,TGI,[46],1930 nM
same,GI50,[47],< 10 nM
same,TGI,[47],< 10 nM
same,GI50,[48],< 10 nM
same,TGI,[48],< 10 nM
same,GI50,[58],< 10 nM
same,TGI,[58],1380 nM
same,TGI,[49],2760 nM
same,GI50,[50],16.3 nM
same,TGI,[50],1220 nM
same,GI50,[51],< 10 nM
same,TGI,[51],1480 nM
same,GI50,[52],< 10 nM
same,GI50,[53],272 nM
same,TGI,[53],3150 nM
same,GI50,[54],< 10 nM
same,TGI,[54],< 10 nM
same,GI50,[55],< 10 nM
same,TGI,[55],1470 nM
same,GI50,[56],< 17.1 nM
same,TGI,[56],2320 nM
same,GI50,[57],< 10 nM
same,TGI,[57],< 10 nM
